The values that follow come from patent US10508088B2, “Methods using HDAC11 inhibitors” (FORMA Therapeutics, Inc., priority 2016, dated 2019).

Sequence of Recombinant N-terminal GST tag full-length human HDAC11 (Q96DB2 whole entry): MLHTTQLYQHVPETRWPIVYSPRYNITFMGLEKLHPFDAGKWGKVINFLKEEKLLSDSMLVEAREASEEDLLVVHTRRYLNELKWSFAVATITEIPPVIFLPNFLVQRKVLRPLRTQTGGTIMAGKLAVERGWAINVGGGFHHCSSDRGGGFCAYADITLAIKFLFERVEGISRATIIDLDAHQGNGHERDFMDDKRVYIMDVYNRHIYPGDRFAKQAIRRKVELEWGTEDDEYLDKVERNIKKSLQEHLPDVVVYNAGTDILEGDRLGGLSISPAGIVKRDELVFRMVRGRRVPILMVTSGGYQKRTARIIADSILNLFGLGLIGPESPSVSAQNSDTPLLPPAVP

The test has as its target Recombinant N-terminal GST tag full-length human HDAC11 (Homo sapiens (Human), UniProt Q96DB2). Kind of test: Probe binding HDAC11 assay, time resolved fluorescence (TRF). As to conditions: read-out: HDAC11 IC50 Range. The protocol:
The probe binding HDAC11 assay was performed using a time resolved fluorescence (TRF) assay format. Recombinant N-terminal GST tag full-length human HDAC11 was expressed and purified from baculovirus in Sf9 insect cells (SignalChem, # H93-30G-1000). Each assay was performed in 1536 black well microplates (Corning, #3936) in a final volume of 8 μL in assay buffer containing 50 mM HEPES (pH 7.5), 50 mM KCl, 50 mM NaCl, 0.5 mM GSH (L-Glutathione reduced, Sigma #G4251), 0.03% BGG (0.22 μM filtered, Sigma, #G7516-25G), and 0.01% Triton X-100 (Sigma, #T9284-10L). 100 nL of 10-point, 3-fold serial dilution in DMSO was pre-dispensed into respective wells of 1536 assay plates for a final test concentration range of 25 μM to 1.3 nM respectively. The final concentration in the assay of HDAC11 and probe (a fluorescein labeled HDAC 11 inhibitor) was 2.5 nM and 20 nM respectively. 4 μL of 2× probe and 2× anti-GST Terbium (Cisbio, #61GSTXLB) was added to assay plates followed by 4 μL of 2×HDAC11. Plates were incubated for 16 hours at room temperature before time resolved fluorescence was read on the Envision (Excitation at 340 nm, and Emission at 485 nm and 535 nm, Perkin Elmer).
Data from HDAC11 Assays were reported as percent inhibition (inh) compared with control wells based on the following equation: % inh=1−((FLU−AveLow)/(AveHigh−AveLow)) where FLU=measured time resolved fluorescence. AveLow=average time resolved fluorescence of no enzyme control (n=32). AveHigh=average time resolved fluorescence of DMSO control (n=32). IC50 values were determined by curve fitting of the standard 4 parameter logistic fitting algorithm included in the Activity Base software package: IDBS XE Designer Model205. Data is fitted using the Levenburg Marquardt algorithm.
Broadly, the IC50 is the midpoint of a concentration-inhibition curve. In the case of `COCCn1c(Nc2cccc(C(=O)NO)c2)nc2c(OC)cccc21` [Example 24-1, N-hydroxy-3-((4-methoxy-1-(2-methoxyethyl)-1H-benzo[d]imidazol-2-yl)amino)benzamide], the IC50 was more than 1000 nM.

Turning to `COCCn1c(Nc2cccc(C(=O)NO)c2)nc2cccc(OC)c21` [Example 24-2, N-hydroxy-3-((7-methoxy-1-(2-methoxyethyl)-1H-benzo[d]imidazol-2-yl)amino)benzamide], the 50% inhibitory concentration (IC50) was more than 1000 nM.

For the molecule `COCCN(c1cccc(C(=O)NO)c1)c1nc2ccccc2[nH]1` [Example 25-1, 3-((1H-benzo[d]imidazol-2-yl)(2-methoxyethyl)amino)-N-hydroxybenzamide], the 50% inhibitory concentration (IC50) was more than 1000 nM.

As for `N#Cc1cc2nc(Oc3cccc(C(=O)NO)c3)[nH]c2cc1C(F)(F)F` [Example 26-1, 3-((5-cyano-6-(trifluoromethyl)-1H-benzo[d]imidazol-2-yl)oxy)-N-hydroxybenzamide], the IC50 was more than 1000 nM.

For `N#Cc1cc2nc(Cc3cccc(C(=O)NO)c3)[nH]c2cc1C(F)(F)F` [Example 27-1, 3-((5-cyano-6-(trifluoromethyl)-1H-benzo[d]imidazol-2-yl)methyl)-N-hydroxybenzamide], the IC50 is less than 500 nM.

Turning to `O=C(NO)c1cccc(Cc2nc3cc(Cl)c(Cl)cc3[nH]2)c1` [Example 27-2, 3-((5,6-dichloro-1H-benzo[d]imidazol-2-yl)methyl)-N-hydroxybenzamide], the IC50 was less than 500 nM.

For `O=C(NO)c1cccc(Nc2cc3cc(Cl)c(Cl)cc3[nH]2)c1` [Example 28-1, 3-((5,6-dichloro-1H-indol-2-yl)amino)-N-hydroxybenzamide], the IC50 was less than 500 nM.

For `O=C(NO)c1cccc(Nc2nc3nccnc3[nH]2)c1` [Example 29-1, 3-((1H-imidazo[4,5-b]pyrazin-2-yl)amino)-N-hydroxybenzamide], the IC50 is more than 1000 nM.

Consider `O=C(NO)c1cccc(Nc2nc3cncnc3[nH]2)c1` [Example 30-1, 3-((9H-purin-8-yl)amino)-N-hydroxybenzamide], for which the IC50 is more than 1000 nM.

Regarding `O=C(NO)c1cccc(Nc2nc3cc(Cl)c(Cl)cc3o2)n1` [Example 31-1, 6-((5,6-dichlorobenzo[d]oxazol-2-yl)amino)-N-hydroxypicolinamide], the IC50 was less than 500 nM.

Consider `O=C(NO)c1cccc(Nc2nc3ncccc3o2)c1` [Example 32-1, N-hydroxy-3-(oxazolo[4,5-b]pyridin-2-ylamino)benzamide], for which the IC50 was more than 1000 nM.

In the case of `O=C(NO)c1cccc(Nc2nc3ncc(C(F)(F)F)cc3o2)c1` [Example 32-2, N-hydroxy-3-((6-(trifluoromethyl)oxazolo[4,5-b]pyridin-2-yl)amino)benzamide], the half-inhibitory concentration (IC50) was less than 500 nM.

On to `O=C(NO)c1cccc(Nc2nc3cc(F)c(Cl)cc3[nH]2)c1` [Example 33-1, 3-((6-chloro-5-fluoro-1H-benzo[d]imidazol-2-yl)amino)-N-hydroxybenzamide], for which the IC50 is less than 500 nM.

With `Cc1cc2[nH]c(Nc3cccc(C(=O)NO)c3)nc2cc1Cl` [Example 33-2, 3-((5-chloro-6-methyl-1H-benzo[d]imidazol-2-yl)amino)-N-hydroxybenzamide], the IC50 is less than 500 nM.

Regarding `O=C(NO)c1cccc(Nc2nc3cc(F)c(F)cc3[nH]2)c1` [Example 33-3, 3-((5,6-difluoro-1H-benzo[d]imidazol-2-yl)amino)-N-hydroxybenzamide], the IC50 fell in the range of 500 to 1000 nM.

In the case of `O=C(NO)c1cccc(Nc2nc3cc4c(cc3[nH]2)OCO4)c1` [Example 33-4, 3-((5H-[1,3]dioxolo[4′,5′:4,5]benzo[1,2-d]imidazol-6-yl)amino)-N-hydroxybenzamide], the IC50 was more than 1000 nM.

In the case of `O=C(NO)c1cccc(Nc2nc3cc(F)c(C(F)(F)F)cc3[nH]2)c1` [Example 33-5, 3-((5-fluoro-6-(trifluoromethyl)-1H-benzo[d]imidazol-2-yl)amino)-N-hydroxybenzamide], the half-inhibitory concentration (IC50) is less than 500 nM.

`O=C(NO)c1cccc(Nc2nc3cc(Cl)c(C(F)(F)F)cc3[nH]2)c1` [Example 33-6, 3-((5-chloro-6-(trifluoromethyl)-1H-benzo[d]imidazol-2-yl)amino)-N-hydroxybenzamide]: the 50% inhibitory concentration (IC50) was less than 500 nM.

As for `O=C(NO)c1cccc(Nc2nc3cc(Br)c(OC(F)(F)F)cc3[nH]2)c1` [Example 33-7, 3-((5-bromo-6-(trifluoromethoxy)-1H-benzo[d]imidazol-2-yl)amino)-N-hydroxybenzamide], the IC50 is less than 500 nM.

For the molecule `O=C(NO)c1cccc(Nc2nc3cc4c(cc3[nH]2)OCCCO4)c1` [Example 33-8, 3-((7,8-dihydro-1H,6H-[1,4]dioxepino[2′,3′:4,5]benzo[1,2-d]imidazol-2-yl)amino)-N-hydroxybenzamide], the IC50 is more than 1000 nM.

With `O=C(NO)c1cccc(Nc2nc3cc4c(cc3[nH]2)OCCO4)c1` [Example 33-9, 3-((6,7-dihydro-1H-[1,4]dioxino[2′,3′:4,5]benzo[1,2-d]imidazol-2-yl)amino)-N-hydroxybenzamide], the IC50 lay in the range of 500 to 1000 nM.

For the molecule `Cc1cc2[nH]c(Nc3cccc(C(=O)NO)c3)nc2cc1F` [Example 33-10, 3-((5-fluoro-6-methyl-1H-benzo[d]imidazol-2-yl)amino)-N-hydroxybenzamide], the IC50 is less than 500 nM.

Turning to `O=C(NO)c1cccc(Nc2nc3cc(Br)c(C(F)(F)F)cc3[nH]2)c1` [Example 33-11, 3-((5-bromo-6-(trifluoromethyl)-1H-benzo[d]imidazol-2-yl)amino)-N-hydroxybenzamide], the IC50 was less than 500 nM.

With `Cc1cc2[nH]c(Nc3cccc(C(=O)NO)c3)nc2cc1Br` [Example 33-12, 3-((5-bromo-6-methyl-1H-benzo[d]imidazol-2-yl)amino)-N-hydroxybenzamide], the concentration for half-maximal inhibition (IC50) was less than 500 nM.

As for `COc1cc2nc(Nc3cccc(C(=O)NO)c3)[nH]c2cc1OC` [Example 33-13, 3-((5,6-dimethoxy-1H-benzo[d]imidazol-2-yl)amino)-N-hydroxybenzamide], the concentration for half-maximal inhibition (IC50) is more than 1000 nM.

Regarding `O=C(NO)c1cccc(Nc2nc3cc(Cl)c(Cl)cc3[nH]2)c1` [Example 33-14, 3-((5,6-dichloro-1H-benzo[d]imidazol-2-yl)amino)-N-hydroxybenzamide], the 50% inhibitory concentration (IC50) is less than 500 nM.

As for `O=C(NO)c1cccc(Nc2nc3cc(Cl)c([N+](=O)[O-])cc3[nH]2)c1` [Example 33-15, 3-((5-chloro-6-nitro-1H-benzo[d]imidazol-2-yl)amino)-N-hydroxybenzamide], the 50% inhibitory concentration (IC50) was less than 500 nM.

In the case of `O=C(NO)c1cccc(Nc2nc3cc(F)c(Br)cc3[nH]2)c1` [Example 33-16, 3-((6-bromo-5-fluoro-1H-benzo[d]imidazol-2-yl)amino)-N-hydroxybenzamide], the IC50 is less than 500 nM.

Regarding `O=C1COc2cc3[nH]c(Nc4cccc(C(=O)NO)c4)nc3cc2N1` [Example 33-18, N-hydroxy-3-((7-oxo-3,6,7,8-tetrahydroimidazo[4′,5′:4,5]benzo[1,2-b][1,4]oxazin-2-yl)amino)benzamide], the IC50 was more than 1000 nM.

Regarding `COc1cc2nc(Nc3cccc(C(=O)NO)c3)[nH]c2cc1Cl` [Example 33-19, 3-((6-chloro-5-methoxy-1H-benzo[d]imidazol-2-yl)amino)-N-hydroxybenzamide], the IC50 is 500 to 1000 nM.

`O=C(NO)c1cccc(Nc2nc3cc(Cl)ccc3[nH]2)c1` [Example 33-20, 3-((5-chloro-1H-benzo[d]imidazol-2-yl)amino)-N-hydroxybenzamide]: the IC50 was more than 1000 nM.

Turning to `O=C(NO)c1cccc(Nc2nc3cc([N+](=O)[O-])ccc3[nH]2)c1` [Example 33-21, N-hydroxy-3-((5-nitro-1H-benzo[d]imidazol-2-yl)amino)benzamide], the half-inhibitory concentration (IC50) is 500 to 1000 nM.

As for `O=C(NO)c1cccc(Nc2nc3cc(C(F)(F)F)ccc3[nH]2)c1` [Example 33-22, N-hydroxy-3-((5-(trifluoromethyl)-1H-benzo[d]imidazol-2-yl)amino)benzamide], the 50% inhibitory concentration (IC50) was less than 500 nM.

On to `CS(=O)(=O)c1ccc2[nH]c(Nc3cccc(C(=O)NO)c3)nc2c1` [Example 33-23, N-hydroxy-3-((5-(methylsulfonyl)-1H-benzo[d]imidazol-2-yl)amino)benzamide], for which the concentration for half-maximal inhibition (IC50) is more than 1000 nM.

Regarding `NS(=O)(=O)c1ccc2[nH]c(Nc3cccc(C(=O)NO)c3)nc2c1` [Example 33-24, N-hydroxy-3-((5-sulfamoyl-1H-benzo[d]imidazol-2-yl)amino)benzamide], the half-inhibitory concentration (IC50) is more than 1000 nM.

For the molecule `CN(c1cccc(C(=O)NO)c1)c1nc2cc(-c3cccnc3)c(C(F)(F)F)cc2n1C` [Example 34-1, N-hydroxy-3-(methyl(1-methyl-5-(pyridin-3-yl)-6-(trifluoromethyl)-1H-benzo[d]imidazol-2-yl)amino)benzamide], the IC50 is more than 1000 nM.

`CN(c1cccc(C(=O)NO)c1)c1nc2cc(C(F)(F)F)c(-c3cccnc3)cc2n1C` [Example 34-2, N-hydroxy-3-(methyl(1-methyl-6-(pyridin-3-yl)-5-(trifluoromethyl)-1H-benzo[d]imidazol-2-yl)amino)benzamide]: the IC50 is more than 1000 nM.
